The test system of the assay is CEM cells HIV-1 protection, formazan growth assay. In words: NCI AIDS Antiviral Assay. To be noted: for IC50: measured here: growth of uninfected CEM cells. In a few lines: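 Human CEM cells, uninfected and HIV-1-infected, exposed to five drug concentrations; growth measured by soluble formazan assay and scored as percent protection from infection, with protecting compounds retested.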

Where “and” joins values, the source holds several entries; their conditions need not be identical. Identical values can stand only once. Calls of active or inactive are those of the source.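 How the source made its calls: active means compounds giving half or more protection of infected cells from virus-caused growth loss, again on retest; inactive means the rest.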 A value given as a limit tells only on which side of the number the result lay.

As for `Oc1ccc(O)c(Sc2nnc(CCCCCCCCc3nnc(Sc4cc(O)ccc4O)o3)o2)c1`, the result was inactive.
In general, EC50 refers to the midpoint of the concentration-response curve. Broadly, the IC50 is the concentration that gives 50% inhibition. Read a high IC50 as weaker potency. In the case of `CCC1C(C#N)=C(O)NC(O)=C1C#N`, the EC50 was over 1290 µM and the IC50 worked out at 813 µM.
Regarding `CCOC(=O)C1(C(=O)OCC)OC(C)=NC1(C(=O)OC)C(=O)OC`, the EC50 was over 200 µM and the IC50 is over 200 µM.
Consider `O=S1(=O)CCCCO1`, for which the outcome was inactive.
`c1ccc(-c2cn3nc4ccccc4c3nn2)cc1`: the EC50 was over 200 µM and the IC50 is over 200 µM.
Regarding `CC(C)(C)OC(=O)NC1CC=CCC1NC(=O)OC(C)(C)C` (centres undefined), the EC50 is over 200 µM and the IC50 was over 200 µM.
Regarding `COC(=O)[C@H](C)N(C)C(=O)[C@H](C)N1[C@@H](c2ccccc2)COC1(C)C`, the EC50 was over 200 µM and the IC50 was over 200 µM.
For the compound `Cc1ccc(C(=O)Nc2ccccc2)cc1N=NN(C)C`, the EC50 was over 331 µM and the IC50 was found to be 288 µM.
For `O=c1ssc(Cl)c1-c1ccccc1` the same measures were over 200 µM and 10.2 µM.
Taken in the same sequence, the figures for `OC1CSc2ccccc2-n2cccc21` (centres undefined) were over 138 µM and 110 µM.
With `CSC1=Nc2ccccc2N=C(c2ccccc2)C1`, the EC50 is over 26.9 µM and the IC50 was over 26.9 µM.
For `O=[N+]([O-])/C=C/c1cc2ccc3ccccc3c2[nH]1`, the EC50 was over 200 µM and the IC50 amounted to 1.02 µM.
`C=CCn1cc(C(=O)NC(=O)NCCCCCOC(=O)CCCCCCCCCCC(=O)OCCCCCNC(=O)NC(=O)c2cn(CC=C)c(=O)n(C)c2=O)c(=O)n(C)c1=O`: the EC50 was over 5.75 µM and the IC50 is over 5.75 µM.
As to `COc1cc2c(cc1OC)-c1cc3cc(OC)c(OC)cc3n1CC2`, the EC50 was over 4.27 µM and the IC50 is 2.4 µM.
As to `NC(=S)N/N=C1\CCCC\C1=C/c1ccccc1`, the EC50 is over 138 µM and the IC50 worked out at 112 µM.
On to `Cc1cc(S(=O)(=O)N=C2Nc3cccc4cccc(c34)N2)c(S)cc1Cl`, for which the EC50 is 132 µM and the IC50 came out at 174 µM.
For `CCOC1N(C2CC(N=[N+]=[N-])C(CO)O2)C(=O)NC(=O)C1(C)Br` (centres undefined), the EC50 is 0.00813 µM and 0.00631 µM; the IC50 was 22.4 µM and 17.4 µM.
With `Cc1c(Cc2cc(C(C)(C)C)c(O)c(C(C)(C)C)c2)c(C)c(Cc2cc(C(C)(C)C)c(O)c(C(C)(C)C)c2)c(C)c1Cc1cc(C(C)(C)C)c(O)c(C(C)(C)C)c1`, the outcome was inactive.
As to `COc1cc(C(=O)O)ccc1O`, the EC50 was over 200 µM and the IC50 was over 200 µM.
For `C1CSC2=C(S1)SC1=C(S2)SC(=C2SC3=C(SC4=C(SCCS4)S3)S2)S1`, the EC50 was over 200 µM and the IC50 is over 200 µM.
Take `N=C1/C(=C/c2ccc(F)cc2)C(=O)N=C2SC=NN12`: the EC50 was over 200 µM and the IC50 is over 200 µM.
On to `COc1ccc(CC2COC(=O)[C@@H]2Cc2ccccc2)cc1OC` (some centres undefined), for which the EC50 was over 200 µM and the IC50 was 75.9 µM.
On to `Cn1c(=O)sc2cc(C(=S)N3CCCCC3)ccc21`, for which the EC50 is over 200 µM and the IC50 worked out at 107 µM.
Consider `Cn1cc(NC(=O)Nc2cc(C(=O)Nc3cc(C(=O)Nc4ccc5cc(S(=O)(=O)O)cc(S(=O)(=O)O)c5c4)n(C)n3)n(C)c2)cc1C(=O)Nc1cc(C(=O)Nc2ccc3cc(S(=O)(=O)O)cc(S(=O)(=O)O)c3c2)n(C)n1`, for which the EC50 was 5.5 µM and the IC50 was over 100 µM.
For `Cn1c2ccccc2c2nn3cnnc3nc21` the same measures were over 32.4 µM and over 32.4 µM.
For `COc1c(OCC(O)CN2CCCCC2)c2c(C)coc2c2ccoc12` (centres undefined) the same measures were over 631 µM and 35.5 µM.
Taken in the same sequence, the figures for `c1ccc2nc3c(nc2c1)[nH]c1ccccc13` were over 12.3 µM and over 12.3 µM.
On to `O=C1N[C@@H]([C@H](CCCCCO)OC(=O)c2ccccc2)CO1`, for which the EC50 is over 200 µM and the IC50 was over 200 µM.
Regarding `COc1ccc(/C(=N/Nc2ccccc2)C(c2ccc(OC)cc2)C2OC(=O)c3ccccc32)cc1` (centres undefined), the EC50 is over 28.2 µM and the IC50 was over 28.2 µM.
As to `N#CC(/C=C/c1ccccc1)NCCc1ccccc1` (centres undefined), the EC50 was over 10.5 µM and the IC50 is over 10.5 µM.
For `O=C(O)CC(=O)Nc1ccccc1S`, the EC50 was over 200 µM and the IC50 was over 200 µM.
As to `O=C(O)C1(CC(CCCN2CCCCC2)c2ccccc2)CCCC1` (centres undefined), the EC50 is over 200 µM and the IC50 turned out to be 191 µM.
For the compound `NNC(=O)/C(NC(=O)c1ccccc1)=C(\N)c1cccc([N+](=O)[O-])c1`, the EC50 is over 15.1 µM and the IC50 was over 15.1 µM.
As to `OCCN(CCO)c1nc(N2CCCCC2)c2nc(N(CCO)CCO)nc(N3CCCCC3)c2n1`, the result was inactive.
Still for that read-out and setting: the same measure for `C=CCCC1(O)C(O)C(CO)O[C@H](O[C@@]2(CO)OC(CO)C(O)C2O)C1O` (some centres undefined): “inactive”.
In the case of `C/C(=C\CNc1ncnc2c1ncn2CCC#N)CO`, the EC50 was over 200 µM and the IC50 is over 200 µM.
As for `CN1C(c2ccccc2)=CC(=O)C(O)=C(c2ccccc2)S1(=O)=O`, the EC50 is over 200 µM and the IC50 was over 200 µM.
Regarding `O=C(O)CNC(=O)OCCCCOC(=O)NCC(=O)O`, the EC50 is over 851 µM and the IC50 was over 851 µM.
Take `CN1C(=O)C2C=C3CCCCC3=CC2N(C)C1=O` (centres undefined): the EC50 was over 200 µM and the IC50 was over 200 µM.
Take `CC1(C)CCC(C)(C)c2cc(C(=O)Nc3ccc(C(=O)O)cc3)ccc21`: the outcome was inactive and the IC50 stood at 115 µM.
On to `C#CC(O)/C=C/C(O)CCCC(O)CC#CC(O)C#CC(O)CCCC(O)/C=C/CCCCCC(=O)CCCCCCCCCCCCCC(O)C(O)C#CC(=O)O` (centres undefined), for which the EC50 was over 100 µM and the IC50 worked out at 58.9 µM.
For `Cc1nnc(N)nc1C/C=C/C(C)Sc1ccc(Cl)cc1` (centres undefined) the same measures were over 200 µM and 6.61 µM.
Regarding `COc1ccc(C2C(=O)C(Cl)N2Nc2nc(C)cc(=O)[nH]2)cc1OC` (centres undefined), the EC50 is over 186 µM and the IC50 was 20.4 µM.
For `C/C(=N\N=C(\[Se])N1CCN(c2ccccn2)CC1)c1ccccn1` the same measures were over 36.3 µM and 0.0155 µM.
`COCCOCCOCCOc1ccc(C(C#N)N(CCc2ccccc2)C(=O)c2cc(C(=O)N(CCc3ccccc3)C(C#N)c3ccc(OCCOCCOCCOC)cc3)cc(C(=O)N(CCc3ccccc3)C(C#N)c3ccc(OCCOCCOCCOC)cc3)c2)cc1` (centres undefined): the EC50 was over 200 µM and the IC50 is over 200 µM.
With `Cc1cc(N(CCC#N)CCC#N)ccc1/C=C/C(=O)Nc1cccc(Cl)c1`, the EC50 is over 66.1 µM and the IC50 was over 66.1 µM.
In the case of `Cc1cc(C)c(SSc2c(C)cc(C)cc2C)c(C)c1`, the EC50 was over 200 µM and the IC50 amounted to 28.2 µM.
As for `O=C(CCCn1ccnc1[N+](=O)[O-])NCCn1ccnc1`, the result was inactive.
Turning to `CCN(CC)C(=O)c1cc([N+](=O)[O-])c(=O)n2c1[nH]c1ccccc12`, the EC50 is over 200 µM and the IC50 came to 151 µM.
Taken in the same sequence, the figures for `CC(C)(C)C1CCC(CC(=O)O)(CC(=O)Nc2nccs2)CC1` (centres undefined) were over 200 µM and 89.1 µM.
Taken in the same sequence, the figures for `O=[N+]([O-])c1ccc(N=Nc2c(O)c(N=Nc3cc([N+](=O)[O-])cc([N+](=O)[O-])c3O)cc(N=Nc3cc(S(=O)(=O)O)cc4cc(S(=O)(=O)O)cc(O)c34)c2O)cc1` were 16.6 µM and 50.1 µM.
For `COc1cc2c(c3oc(=O)cc(C)c13)[C@@H](OC(=O)C13CCC(C)(C(=O)O1)C3(C)C)[C@@H](OC(=O)C13CCC(C)(C(=O)O1)C3(C)C)C(C)(C)O2` (some centres undefined) the same measures were 0.324 µM and over 200 µM.
As for `O=C(CC/C(CC(=O)c1ccc(Br)cc1)=N\O)Nc1ccc(Cl)c(Cl)c1`, the EC50 is over 79.4 µM and the IC50 was 16.2 µM.
As for `C=CCN=C([S-])Nc1cccc(C(=O)O)c1.[Au+].[Na+]`, the result was inactive.
Turning to `Cc1ccccc1N=NC(C(=O)c1ccccc1)C(=O)c1ccccc1`, the EC50 was over 20.9 µM and the IC50 was determined as 14.8 µM.
For `S=c1sc(-c2ccc(Cl)cc2)nn1CSc1nc2ccccc2o1` the same measures were over 200 µM and over 200 µM.
With `COC1(OC)N=C(N)C2(C#N)C3(C(=O)N(C(C)C)N=C3C)C12C#N` (centres undefined), the EC50 was over 200 µM and the IC50 is over 200 µM.
Consider `CCCCCCCCCCCCC(=O)NC1=C(O)c2ccccc2C(=O)C1=O`, for which the result was inactive.
Consider `COc1ccc2c(c1)CCC1C(=O)NN=C21` (centres undefined), for which the EC50 is over 776 µM and the IC50 is over 776 µM.
Take `COc1ccc(C2=NNC(=O)C2(C)Br)cc1` (centres undefined): the EC50 was over 200 µM and the IC50 came to 42.7 µM.
Taken in the same sequence, the figures for `CC1(CO)COc2ccccc2C1=O` (centres undefined) were over 200 µM and over 200 µM.
Taken in the same sequence, the figures for `SCCN1CCCN(CCS)CCC1` were over 200 µM and 135 µM.
In the case of `Nc1nc(Cl)cc(NCC2(CO)CCCCC2)n1`, the EC50 is over 200 µM and the IC50 is 105 µM.
For `COC(=O)c1cc(C)ccc1C1CN=NC12Cc1cccc(C)c1C2=O` (centres undefined) the same measures were over 200 µM and 26.9 µM.
For `N.N.N.N.N.O=S(=O)([O-])S(=O)(=O)[O-].[Co+3]` the same measures were over 42.7 µM and over 42.7 µM.
In the case of `CCOC(=O)c1ncn2c1[nH]c(=O)c1ccccc12`, the EC50 was over 7.41 µM and the IC50 is over 7.41 µM.
On to `CCOC(=O)C1=C(O)c2ccccc2C(=O)C1=O`, for which the EC50 is over 525 µM and the half-maximal inhibitory concentration (IC50) stood at 316 µM.
For `CC(=O)NCCCCN(CCCNC(C)=O)C(=O)CNS(=O)(=O)c1cccc2c(N(C)C)cccc12` the same measures were over 200 µM and over 200 µM.
For `CCOC(=O)NC(=O)c1cn(C2CCCCC2)c(=O)n(C)c1=O` the same measures were over 81.3 µM and over 81.3 µM.
Take `COc1cc(C(=O)N(C)N(C)C)cc(OC)c1OC`: the EC50 was over 200 µM and the IC50 is over 200 µM.
Regarding `COC(=O)C1CCC(=S)N1C(C)=O` (centres undefined), the EC50 was over 200 µM and the IC50 was over 200 µM.

Values taken from PubChem BioAssay AID179 (DTP/NCI, 2004).
